Reference: US20210177542A1, “POWDER FOR CLEANING AN INTERNAL BODY PART AND/OR AN IMPLANT, METHOD FOR PRODUCING SAID TYPE OF POWDER AND SUITABLE USES” (FERTON HOLDING S.A., priority 2017, published 2021)
Converted amounts (≈) assume the structure as drawn.

How the values were obtained:
Type in all cases: physicochemical
[1] = Solubility in water at 20° C.; conditions: for Solubility in water: Table 2; for solubility: water, Table 1
Text: In this disclosure, substances are classified as water-soluble if more than 1 g of powder can be added per liter. […] The preferred powders have the following properties: […]

Density of the powder = conditions: Table 1
Text: In another embodiment of the present disclosure, it is provided for the powder to have a density between 0.2 and 3 g/cm^3, preferably between 0.2 and 2.4 g/ cm^3 and particularly preferably between 0.2 and 1.6 g/ cm^3.

[2] = Hygroscopicity (moisture absorption) of the powder types; conditions: sensitivity to moisture during sterilizing
Text: The powders of present disclosure are hygroscopic. According to a preferred embodiment, amorphous silica (silicon dioxide) is therefore added to the powders, especially in a volume ratio of 0.1 to 2.5%. This can reduce or even completely prevent absorption of moisture by the powder during sterilizing. The addition of amorphous silica results in hydrophobic coating for the powder particles, thus counteracting the moisture absorption of the powder particles during the sterilizing process. In less hygroscopic powders, addition of amorphous silica may be reduced or even completely omitted. The following powder types may be classified as hygroscopic: sodium hydrogen carbonate, glycine and erythritol.

Solubility in water [1] | solubility [1] | Density (Density of the powder) | Classification as hygroscopic [2] | SMILES
540 g/1 | 540 mg/mL (≈ 4420 mM) | 1.45 g/mL | hygroscopic | OC[C@@H](O)[C@@H](O)CO [Erythritol, erythritol]
 |  | 1.61 g/mL | hygroscopic | NCC(=O)O [Glycine, glycine]
 |  | 2.54 g/mL | hygroscopic | O=C([O-])O.[Na+] [Sodium bicarbonate, sodium bicarbonate]
690 g/1 | 690 mg/mL (≈ 2020 mM) | 1.80 g/mL | slightly less sensitive | OC[C@H]1O[C@H](O[C@H]2O[C@H](CO)[C@@H](O)[C@H](O)[C@H]2O)[C@H](O)[C@@H](O)[C@@H]1O [Trehalose, trehalose]
